Patent publication US6855693B2, “Peptides for activation and inhibition of δPKC” (The Board of Trustees of the Leland Stanford Junior …, priority 2001, dated 2005)
No end group written: not given here.

How the values were obtained:
[1] = tested on: whole rat hearts; test: Ex vivo Langendorff perfused whole hearts, peptide before 30 min global ischemia, creatine phosphokinase release
From the text: In another study performed in support of the invention, the δPKC selective inhibitor peptide, δV1-1, or the activator peptide, ψδRACK, were delivered to whole hearts ex vivo to determine if the peptides have activity when introduced extracellulary to a whole organ. As described in Example 3, δV1-1 and ψδRACK peptides were conjugated to a carrier peptide, a Tat-derived peptide. The peptides were delivered into Langendorff perfused rat hearts prior to induction of an ischemic period. After perfusion with the peptides, global ischemia was effected for 30 minutes. After the 30 minute ischemic period, the amount of creatine phosphokinase (CPK) released was monitored during a 30 minute reperfusion period.
Adult, male rats were anesthetized with i.p. avertin, and their hearts were rapidly removed and cannulated via the aorta for perfusion as described in the art (Colbert, M. C. et al.) using Langendorff set-up. Care was taken to have the hearts perfused within 90 seconds of removal. The hearts were perfused with oxygenated Krebs-Henseleit solution comprised of, in […], NaCl 120; KCl 5.8; NaHCO3 25; NaH2O4 1.2; MgSO4 1.2; CaCl2 1.0; and dextrose 10, pH 7.4 at 37 C.
After a 10-20 minute equilibration period, the hearts were perfused with δV1-1 peptide (SEQ ID NO:4) or with ψδRACK peptide (SEQ ID NO:6), prepared as described in Example 1 but conjugated to a Tat-derived peptide (Tat 47-57, SEQ ID NO:9), for 20 minutes. Perfusion was maintained at a constant flow of 10 mL/min with Krebs-Hanseleit solution containing 0.5 μM of the appropriate peptide. The Langendorff method employed used retrograde flow from the […] and into the coronary arteries, bypassing the pulmonary arteries.
To induce global ischemia, flow was interrupted for 30 minutes. After the ischemic event, the hearts were re-perfused for 30-60 minutes. During reperfusion, ischemia-induced cell damage was determined by measuring the activity of creatine phosphokinase (CPK) (absorbance at 520 nm) in the perfusate using a Sigma kit. […]

[2] = tested on: whole rat hearts; test: Ex vivo whole hearts, peptide during reperfusion after 20 min global ischemia, functional recovery
Method: Another study was performed to determine if the peptides could be delivered to an intact organ to provide protection after an ischemic insult. In this study, as described in Example 4, the rat heart model described above was used and the hemodynamic parameters were measured during the 20 minutes of global ischemia and the […]. During the reperfusion only, δV1-1 was delivered at a concentration of 500 nM.
In a similar study, five pairs of rats were treated as described in Example 4, where the ex vivo hearts were subjected to 20 minutes of ischemia and 30 minutes of reperfusion. During the first 20 minutes of reperfusion, 500 nM of δV1-1 or vehicle control was administered.
Rat hearts were isolated as described in Example 3. The left ventricular pressure and its real-time derivative (dP/dt) were monitored via a latex balloon placed in the ventricular cavity and at a constant heart rate by pacing (3.3 Hz) and at a constant coronary flow (10 ml/min.). The hearts were subjected to 20 minutes of ischemia and 30 minutes of re-perfusion. During the first 20 minutes of reperfusion, 500 nM of δV1-1 or vehicle control was delivered.

[3] = tested on: mouse model; test: Safety of two injections in the mouse model; type: in vivo; settings: 1 μM final concentration
From the text: (§1) Blood samples and tissue samples of lung, liver, brain, gut, kidney, etc. were collected from the animals and analyzed at a pathology lab. […] Kidney, liver, brain, and lung functions were normal and all blood analyses were also normal.

[4] = tested on: adult female pigs; test: Pathology of blood and tissue samples of the treated pigs; design: species or system pig; settings: pigs treated in vivo with δV1-1
From the text: as §1

[5] = tested on: adult female pigs; test: In vivo pig cardiac ischemia (30 min LAD balloon occlusion), infarct of area at risk after five days; settings: approximately 20 μg Tat-conjugated peptide during last 10 minutes of 30 minute occlusion; five days later
Method: In another study in support of the invention, the ability of δV1-1 peptide to protect tissue from damage due to an ischemic or hypoxic event was evaluated by administering the peptide in vivo to adult female pigs. As detailed in Example 5, δV1-1 peptide was administered to the pigs during the last 10 minutes of a 30 minute ischemic insult. Five days later, the hearts were analyzed for tissue damage. Adult female pigs, 35-40 kg in weight, were anesthetized and a catheter was introduced through the carotid artery into the heart. Using conventional intervention cardiology techniques, a wire was placed through a catheter and into the left anterior descending artery. A balloon was run over this wire to a site of occlusion where it was then inflated to block blood flow for 30 minutes. […] From this the percent infarct per area at risk for each slice and for the entire heart was determined.

[6] = 0.5 μM Tat-conjugated peptide for 20 minutes before 30 minute global ischemia
[7] = 500 nM during reperfusion after 20 minutes global ischemia

Row | reduction in creatine phosphokinase release compared with vehicle control ([2]; 500 nM during reperfusion after 20 minutes global ischemia, not shown) [%] | release of creatine kinase ([1]; 0.5 μM Tat-conjugated peptide before 30 minute global ischemia, reperfusion period) | Sequence | enhancement of cardiac damage induced by ischemia (CPK release) [1, 6] | end diastolic pressure (EDP) ([2]; 500 nM during first 20 minutes of reperfusion, 5-30 minutes after reperfusion) | coronary perfusion pressure (PP) [2, 7] | elevated LVP end diastolic pressure [2, 7] | perfusion pressure (PP) relative to hearts left untreated ([2]; after ischemia and after treatment with 500 nM δV1-1) | adverse effect of two injections ([3]; mouse model) | blood analyses ([3]; two injections) | kidney, liver, brain, and lung functions ([3]; two injections) | protection against ischemic damage in an intact heart [1, 6] | blood samples and tissue samples of lung, liver, brain, gut, kidney, pathology [4] | infarct area within the area at risk (heart slices) [5] | percent of infarct of the area at risk compared with untreated animals [5]
1 | – | – | MRAAEDPM (also: conjugated to Antennapedia or Tat carrier; listed as Rattus norvegicus) [ψδRACK, tested conjugated to Antennapedia or Tat carrier] | about 30% | – | – | – | – | – | – | – | – | – | – | –
2 | ~50 | decreased | SFNSYELGSL (also: conjugated to Antennapedia or Tat carrier; listed as Rattus norvegicus) [δV1-1, tested conjugated to Antennapedia or Tat carrier] | – | approximately 60 mmHg | reduced | reduced | about 75% | no adverse effect | normal | normal | greater than 50% | All samples were normal and no inflammation or tissue abnormalities were observed | significantly reduced infarct area | nearly two-fold lower
